From PubChem BioAssay AID651975 (The Scripps Research Institute Molecular Screening Center, 2013)
The source made the active and inactive calls. No rule for the calls is given here.

Tested on: StAR promoter luciferase reporter cells, luminescence inhibition
Experiment: StAR promoter reporter inhibition counter-screen, late-stage follow-up, counter-screen for LRH-1 inverse agonist project, cell-based, luminescence, dose response (AID 651975)

Row | Structure (SMILES) | IC50
1 | COc1ccc(NC(=O)CS(=O)(=O)c2ccc(C)cc2)c(OC)c1 | > 35.9 µM (inactive)
2 | CCOc1ccc(NC(=O)COC(=O)c2ccc3c(c2)OCCO3)cc1 | > 35.9 µM (inactive)
3 | Cc1ccc(NC(=O)COC(=O)c2cc(=O)c3ccccc3o2)c(Br)c1 | > 35.9 µM (inactive)
4 | Cc1sc(NC(=O)C(C)C)c(C(=O)Nc2ccccc2)c1C | > 35.9 µM (inactive)
